Measured values as given in BindingDB's records for doi:10.1021/jm9802158 (Upjohn, 1998).

Experiments:
[1] = biological target: T1, Dimer of Gag-Pol polyprotein [489-587] (Human immunodeficiency virus 1, UniProt P12497); assay: Protease Inhibition Assay; conditions: pH 5; 22 °C
T1 construct: 489-587
Description: (§1) HIV-1 protease was purified and refolded from E. coli inclusion bodies. The substrate used spans the p17-p24 processing site (R-V-S-Q-N-Y-P-I-V-Q-N-K) and was derivatized with biotin and fluorescein isothiocyanate (FITC) at the amino and carboxy termini. In the presence of HIV-l protease, the substrate is rapidly cleaved into two parts. The biotinylated amino terminal fragment binds to the avidin beads while the FITC-containing carboxy1 terminal fragment is removed through the membrane. […] The bound fluorescence is obtained by processing on an IDEXX Screen Machine. Determination of Ki values with this assay requires analysis under conditions in which substrate concentration resides substantially below Km and the inhibitor concentrations greatly exceeds the Ki value and the enzyme concentration.

[2] = biological target: T2, Dimer of Gag-Pol polyprotein [489-587] (Human immunodeficiency virus 1, UniProt P04585); assay: Protease Inhibition Assay; conditions: pH 5; 22 °C
T2 construct: 489-587
Description: as §1

SMILES | Ki [1] | Ki [2]
CCCC1(CCc2ccccc2)CC(=O)C(C(c2cccc(NS(=O)(=O)c3ccc(C#N)cc3)c2)C(C)(C)C)C(=O)O1 (stereo not given) [4-cyano-N-(3-{1-[4-hydroxy-2-oxo-6-(2-phenylethyl)-6-propyl-5,6-dihydro-2H-pyran-3-yl]-2,2-dimethylpropyl}phenyl)benzene-1-sulfonamide] | 12 nM | –
CCCC1(CCc2ccccc2)CC(=O)C(C(CC)c2cccc(NS(=O)(=O)c3ccc(C#N)cc3)c2)C(=O)O1 (stereo not given) [4-cyano-N-(3-{1-[4-hydroxy-2-oxo-6-(2-phenylethyl)-6-propyl-5,6-dihydro-2H-pyran-3-yl]propyl}phenyl)benzene-1-sulfonamide] | 8.2 nM | –
CCCC1(CCc2ccccc2)CC(=O)C(C(c2cccc(NS(=O)(=O)c3ccc(N)cn3)c2)C(C)(C)C)C(=O)O1 (stereo not given) [5-amino-N-(3-{1-[4-hydroxy-2-oxo-6-(2-phenylethyl)-6-propyl-5,6-dihydro-2H-pyran-3-yl]-2,2-dimethylpropyl}phenyl)pyridine-2-sulfonamide] | – | 0.2 nM
CCCC1(CCc2ccccc2)CC(=O)C(C(CC)c2cccc(NS(=O)(=O)c3ccc(C#N)cn3)c2)C(=O)O1 (stereo not given) [5-cyano-N-(3-{1-[4-hydroxy-2-oxo-6-(2-phenylethyl)-6-propyl-5,6-dihydro-2H-pyran-3-yl]propyl}phenyl)pyridine-2-sulfonamide] | – | 0.1 nM
CCCC1(CCc2ccccc2)CC(=O)C(C(c2cccc(NS(=O)(=O)c3ccc(C#N)cn3)c2)C(C)(C)C)C(=O)O1 (stereo not given) [N-(3-[1-(5,6-Dihydro-4-hydroxy-2-oxo-6-phenethyl-6-propyl-2H-pyran-3-yl)-2,2-dimethylpropyl]phenyl)-5-cycano-2-pyridinesulfonamide] | 1.9 nM | –
CCCC1(CCc2ccccc2)CC(=O)C(C(c2cccc(NS(=O)(=O)c3ccc(C(F)(F)F)cn3)c2)C(C)(C)C)C(=O)O1 (stereo not given) [N-(3-[1-(5,6-Dihydro-4-hydroxy-2-oxo-6-phenethyl-6-propyl-2H-pyran-3-yl)-2,2-dimethylpropyl]phenyl)-5-trifluoromethyl-2-pyridinesulfonamide] | 4.3 nM | –
CCCC1(CCc2ccccc2)CC(=O)C(Cc2cccc(NS(=O)(=O)c3cn(C)cn3)c2)C(=O)O1 (stereo not given) [N-(3-[1-(5,6-Dihydro-4-hydroxy-2-oxo-6-phenethyl-6-propyl-2H-pyran-3-yl)methyl]phenyl)-1-methyl-1H-imidazole-4-sulfonamide] | 13 nM | –
CCC(c1cccc(NS(=O)(=O)c2cn(C)cn2)c1)C1C(=O)CC(CCc2ccccc2)(CCc2ccccc2)OC1=O (stereo not given) [N-(3-{1-[4-hydroxy-2-oxo-6,6-bis(2-phenylethyl)-5,6-dihydro-2H-pyran-3-yl]propyl}phenyl)-1-methyl-1H-imidazole-4-sulfonamide] | 1 nM | –
CCCC1(CCc2ccccc2)CC(=O)C(C(c2cccc(NS(=O)(=O)c3ccc([N+](=O)[O-])cn3)c2)C(C)(C)C)C(=O)O1 (stereo not given) [N-(3-{1-[4-hydroxy-2-oxo-6-(2-phenylethyl)-6-propyl-5,6-dihydro-2H-pyran-3-yl]-2,2-dimethylpropyl}phenyl)-5-nitropyridine-2-sulfonamide] | 2.3 nM | –
CCCC1(CCc2ccccc2)CC(=O)C(C(CC)c2cccc(NS(=O)(=O)CCC)c2)C(=O)O1 (stereo not given) [N-(3-{1-[4-hydroxy-2-oxo-6-(2-phenylethyl)-6-propyl-5,6-dihydro-2H-pyran-3-yl]propyl}phenyl)propane-1-sulfonamide] | > 1000 nM | –
CCC(c1cccc(NS(=O)(=O)c2cn(C)cn2)c1)C1C(=O)CC(CC(C)C)(CC(C)C)OC1=O (stereo not given) [N-(3-{1-[4-hydroxy-6,6-bis(2-methylpropyl)-2-oxo-5,6-dihydro-2H-pyran-3-yl]propyl}phenyl)-1-methyl-1H-imidazole-4-sulfonamide] | 3 nM | –
CCC(c1cccc(NS(=O)(=O)c2cn(C)cn2)c1)C1C(=O)CC(CCC2CC2)(CCC2CC2)OC1=O (stereo not given) [N-(3-{1-[6,6-bis(2-cyclopropylethyl)-4-hydroxy-2-oxo-5,6-dihydro-2H-pyran-3-yl]propyl}phenyl)-1-methyl-1H-imidazole-4-sulfonamide] | 1.7 nM | –
CCC(c1cccc(NS(=O)(=O)c2cn(C)cn2)c1)C1C(=O)CC2(OC1=O)C1CC3CC(C1)CC2C3 (stereo not given) [N-[3-(1-{4'-hydroxy-3',6'-dihydrospiro[adamantane-2,2'-pyran]-6'-one}propyl)phenyl]-1-methyl-1H-imidazole-4-sulfonamide] | 23 nM | –
CCCC1(CCC)CC(=O)C(C(c2cccc(NS(=O)(=O)c3cn(C)cn3)c2)C2CC2)C(=O)O1 (stereo not given) [N-[3-[1-(5,6-Dihydro-4-hydroxy-2-oxo-6,6-dipropyl-2H-pyran-3-yl)cyclopropylmethyl]phenyl]-1-methyl-1H-imidazolesulfonamide] | 0.52 nM | –
CCCC1(CCC)CC(=O)C(C(CC)c2cccc(NS(=O)(=O)c3cn(C)cn3)c2)C(=O)O1 (stereo not given) [N-[3-[1-(5,6-Dihydro-4-hydroxy-2-oxo-6,6-dipropyl-2H-pyran-3-yl)propyl]phenyl]-1-methyl-1H-imidazolesulfonamide] | 1.8 nM | –
CCCC1(CCc2ccccc2)CC(=O)C(C(c2cccc(NS(=O)(=O)c3cn(C)cn3)c2)C2CC2)C(=O)O1 (stereo not given) [N-[3-[1-(5,6-Dihydro-4-hydroxy-2-oxo-6-phenethyl-6-propyl-2H-pyran-3-yl)cyclopropylmethyl]phenyl]-1-methyl-1H-imidazole-4-sulfonamide] | 0.71 nM | –
CCCC1(CCC)CC(=O)C(C(c2cccc(NS(=O)(=O)c3cn(C)cn3)c2)C(C)(C)C)C(=O)O1 (stereo not given) [N-[3-{1-(5,6-Dihydro-4-hydroxy-2-oxo-6,6-dipropyl-2H-pyran-3-yl)-2,2-dimethylpropyl)phenyl]-1-methyl-1H-imidazole-4-sulfonamide] | 0.87 nM | –
CCCC1(CCc2ccccc2)CC(=O)C(C(c2cccc(NS(=O)(=O)c3cn(C)cn3)c2)C(C)(C)C)C(=O)O1 (stereo not given) [N-[3-{1-(5,6-Dihydro-4-hydroxy-2-oxo-6-phenethyl-6-propyl-2H-pyran-3-yl)-2,2-dimethylpropyl)phenyl]-1-methyl-1H-imidazole-4-sulfonamide] | 1.2 nM | –
CCC(c1cccc(NS(=O)(=O)c2cn(C)cn2)c1)C1C(=O)CC(COCCOCCOC)(COCCOCCOC)OC1=O (stereo not given) [N-[3-{1-(5,6-Dihydro-4-hydroxy-2-oxo--6,6-bis((2-(2-methoxyethoxy)ethoxy)methyl)-2H-pyran-3-yl)propyl}phenyl]-1-methyl-1H-imidazole-4-sulfonamide] | 28 nM | –
CCCC1(CCc2ccc(F)cc2)CC(=O)C(C(CC)c2cccc(NS(=O)(=O)c3cn(C)cn3)c2)C(=O)O1 (stereo not given) [N-[3-{1-(5,6-Dihydro-4-hydroxy-2-oxo--6-(2-(4-fluorophenyl)ethyl)-6-propyl-2H-pyran-3-yl)propyl}phenyl]-1-methyl-1H-imidazole-4-sulfonamide] | 3 nM | –
